According to patent US6825200B1, “Substituted dipeptides having nos inhibiting activity” (Fujisawa Pharmaceutical Co., Ltd., priority 1999, dated 2004):

tested on: production of nitric oxide in murine macrophage cell line RAW264.7; assay: Assay for inhibitory activity on the production of nitric oxide (Griess reagent, LPS/INF γ-activated RAW264.7 cells); format: cell-based; conditions: Mus musculus; test compound 10^−6 M; RAW264.7 cells activated with LPS (1 μg/ml) and INF γ (3 u/ml) for 18-24 hours; NO2^− by Griess reagent
Experimental: Test 1: Assay for Inhibitory Activity on the Production of Nitric Oxide The murine macrophage cell line RAW264.7 (American Type Culture Collection, No. TIB71) was used in this study. RAW264.7 cells were grown on […] plastic culture flasks at 37° C., 5% in Dulbecco's modified Eagle's medium (DMEM) supplemented with L-glutamine, penicillin, streptomycin and 10% heat-inactivated fetal bovine serum. They were removed from culture flasks by rubber cell scraper and were centrifuged and resuspended in DMEM without phenol red. They were plated in 96-well microtiter plates (10^5 cells per well) and allowed to adhere over 2 hours. The test samples were added and the cells were preincubated for 1 hour. Thereafter the cells were activated with both of lipopolysaccharide (LPS) (1 μg/ml) and interferon γ (INF γ) (3 u/ml) for 18-24 hours. An equal volume of Griess reagent (1% sulfanilamide/0.1% N-naphthylethylenediamine dihydrochloride/2.5% H3PO4) was added and the cells were incubated at room temperature for 10 minutes. The absorbance was read at 570 nm using microplate reader and NO2^- was measured using NaNO2 as a standard.

Structure (SMILES)	inhibition at 1 µM [%]
O=C(N[C@@H](Cc1ccccn1)C(=O)NCC(=O)N1CCN(c2ccc(Cl)cc2)CC1)c1cc2cc(Cl)ccc2o1 [Compound (a), 5-Chloro-N-[(1S)-2-[[2-[4-(4-chlorophenyl)-1-piperazinyl]-2-oxoethyl]amino]-2-oxo-1-(2-pyridylmethyl)ethyl]-1-benzofuran-2-carboxamide]	100
C[C@H]1CN(c2ccccc2)CCN1C(=O)CNC(=O)[C@H](Cc1ccccn1)NC(=O)/C=C/c1ccc(Cl)cc1 [Compound (b), (2E)-3-(4-Chlorophenyl)-N-[(1S)-2-[[2-((2S)-2-methyl-4-phenyl-1-piperazinyl)-2-oxoethyl]amino]-2-oxo-1-(2-pyridylmethyl)ethyl]-2-propenamide]	100
Cc1ccc(N2C[C@@H](C)N(C(=O)CNC(=O)[C@H](Cc3ccccn3)NC(=O)/C=C/c3ccc(Cl)cc3)[C@@H](C)C2)cc1 [Compound (c), (2E)-3-(4-Chlorophenyl)-N-[(1S)-2-[[2-[(2R,6S)-2,6-dimethyl-4-(4-methylphenyl)-1-piperazinyl]-2-oxoethyl]amino]-2-oxo-1-(2-pyridylmethyl)ethyl]-2-propenamide]	100
O=C(/C=C/c1ccc(Cl)cc1)N[C@@H](Cc1ccccn1)C(=O)NCC(=O)N1CCN(CCC(F)(F)F)CC1 [Compound (d), (2E)-3-(4-Chlorophenyl)-N-[(1S)-2-oxo-2-[[2-oxo-2-[4-(3,3,3-trifluoropropyl)-1-piperazinyl]ethyl]amino]-1-(2-pyridylmethyl)ethyl]-2-propenamide]	100
O=C(/C=C/c1ccc(Cl)cc1)N[C@@H](Cc1ccccn1)C(=O)NCC(=O)N1CCN(c2ccc(C(F)(F)F)cc2)CC1 [Compound (e), (2E)-3-(4-Chlorophenyl)-N-[(1S)-2-oxo-2-[[2-oxo-2-[4-(4-trifluoromethylphenyl)-1-piperazinyl]ethyl]amino]-1-(2-pyridylmethyl)ethyl]-2-propenamide]	99
COc1ccc(N2CCN(C(=O)CNC(=O)[C@H](Cc3ccccn3)NC(=O)c3cc4cc(Cl)ccc4o3)CC2)cc1 [Compound (f), 5-Chloro-N-[(1S)-2-[[2-[4-(4-methoxyphenyl)-1-piperazinyl]-2-oxoethyl]amino]-2-oxo-1-(2-pyridylmethyl)ethyl]-1-benzofuran-2-carboxamide]	100

tested on: not given; assay: not given; conditions: not given

melting point [°C]	Structure (SMILES)
75 to 85	O=C(N[C@@H](Cc1ccccn1)C(=O)NCC(=O)N1CCN(c2cccs2)CC1)c1cc2cc(Cl)ccc2o1 [Example 18, 5-Chloro-N-[(1S)-2-oxo-2-[[2-oxo-2-[4-(2-thienyl)-1-piperazinyl]ethyl]amino]-1-(2-pyridylmethyl)ethyl]-1-benzofuran-2-carboxamide]
152 to 155	C[C@H](NC(=O)[C@H](Cc1ccccn1)NC(=O)c1cc2cc(Cl)ccc2o1)C(=O)N1CCN(c2ccc(Cl)cc2)CC1 [Example 22, 5-Chloro-N-[(1S)-2-[[(1S)-2-[4-(4-chlorophenyl)-1-piperazinyl]-1-methyl-2-oxoethyl]amino]-2-oxo-1-(2-pyridyl-methyl)ethyl]-1-benzofuran-2-carboxamide]
179 to 181	C[C@H](NC(=O)[C@H](Cc1ccccn1)NC(=O)/C=C/c1ccc(Cl)cc1)C(=O)N1CCN(c2ccc(Cl)cc2)CC1 [Example 23, (2E)-3-(4-Chlorophenyl)-N-[(1S)-2-[[(1S)-2-[4-(4-chlorophenyl)-1-piperazinyl]-1-methyl-2-oxoethyl]amino]-2-oxo-1-(2-pyridylmethyl)ethyl]-2-propenamide]
95 to 100	COC[C@@H]1CN(c2ccccc2)CCN1C(=O)CNC(=O)[C@H](Cc1ccccn1)NC(=O)c1cc2cc(Cl)ccc2o1 [Example 25, 5-Chloro-N-[(1S)-2-[[2-[(2S)-2-(methoxymethyl)-4-phenyl-1-piperazinyl]-2-oxoethyl]amino]-2-oxo-1-(2-pyridylmethyl)ethyl]-1-benzofuran-2-carboxamide]
115 to 120	O=C(N[C@@H](Cc1ccccn1)C(=O)NCC(=O)N1CCN(c2ccccc2)C[C@H]1CO)c1cc2cc(Cl)ccc2o1 [Example 26, 5-Chloro-N-[(1S)-2-[[2-[(2S)-2-(hydroxymethyl)-4-phenyl-1-piperazinyl]-2-oxoethyl]amino]-2-oxo-1-(2-pyridylmethyl)ethyl]-1-benzofuran-2-carboxamide]
